Assay results published in patent US20170210778A1, “NOVEL COMPOUNDS” (The Provost, Fellows, Foundation Scholars, and the other …, priority 2014, published 2017).

Columns and labels:
human NOD1 = biological target: T1, human NOD1 (Homo sapiens, UniProt Q9Y239); assay: NOD1 functional agonist assay, 293hNOD1-SEAP reporter cells; type: cell-based; conditions: 293hNOD1 cells, OD above 3*O.D of negative control
T1 construct: expressed in transfected cells; host or cells: HEK293
T1 sequence (Q9Y239 1-953): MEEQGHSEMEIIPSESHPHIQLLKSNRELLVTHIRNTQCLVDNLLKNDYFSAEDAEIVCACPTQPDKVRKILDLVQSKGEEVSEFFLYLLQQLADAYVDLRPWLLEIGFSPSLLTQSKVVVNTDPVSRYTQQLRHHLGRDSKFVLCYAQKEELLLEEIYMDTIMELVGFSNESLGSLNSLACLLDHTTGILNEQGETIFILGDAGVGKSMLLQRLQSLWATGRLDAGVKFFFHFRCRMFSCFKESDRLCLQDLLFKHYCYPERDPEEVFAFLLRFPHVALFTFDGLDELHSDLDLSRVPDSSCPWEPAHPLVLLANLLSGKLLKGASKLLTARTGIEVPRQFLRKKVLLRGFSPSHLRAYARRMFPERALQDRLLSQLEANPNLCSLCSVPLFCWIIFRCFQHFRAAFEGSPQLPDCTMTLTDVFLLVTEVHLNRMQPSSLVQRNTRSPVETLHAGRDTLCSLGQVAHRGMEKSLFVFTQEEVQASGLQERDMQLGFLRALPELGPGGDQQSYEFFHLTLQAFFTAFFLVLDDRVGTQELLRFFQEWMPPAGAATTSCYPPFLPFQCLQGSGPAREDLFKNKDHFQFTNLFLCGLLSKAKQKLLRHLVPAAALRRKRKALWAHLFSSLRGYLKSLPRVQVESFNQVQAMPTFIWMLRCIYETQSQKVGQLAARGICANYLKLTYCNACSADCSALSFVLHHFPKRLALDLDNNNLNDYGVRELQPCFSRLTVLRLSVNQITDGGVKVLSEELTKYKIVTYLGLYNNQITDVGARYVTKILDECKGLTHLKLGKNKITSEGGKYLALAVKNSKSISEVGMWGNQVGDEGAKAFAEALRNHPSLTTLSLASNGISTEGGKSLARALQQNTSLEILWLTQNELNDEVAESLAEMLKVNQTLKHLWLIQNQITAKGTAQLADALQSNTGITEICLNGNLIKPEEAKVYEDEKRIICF
Excerpt: (§1) HEK293 cells were stably transfected with plasmid for the overexpression of the NOD1 genes and a reporter plasmid expressing a secreted embryonic alkaline phosphatase (SEAP) gene under the control of a promoter inducible by the transcription factors NF-κB and AP-1. These cells are referred herein as 293hNOD1-SEAP (for cells overexpressing the human NOD1 gene) and 293mNOD1-SEAP (for cells overexpressing the murine NOD1 gene). Upon NOD1 stimulation, these cells induce the activation of NF-κB and AP-1 and subsequently the secretion of SEAP. The reporter protein is easily detectable and measurable when using QUANTI-Blue™ (InvivoGen, San Diego, Calif.), a medium that turns purple/blue in the presence of SEAP.
(§2) The biological activity of the compounds of the invention tested using 293hNOD1 and 293mNOD1 cells. SEAP expression was measured using the commercially available SEAP detection kit (HEK-Blue™ Detection, InvivoGen). The SEAP activity in cells was quantified using the microplate reader (FLUOStar OPTIMA, BMG laboratories), the absorbance values were read using filter with excitation at 620 nm and emission at 655 nm. The results provided in Table 2 were expressed as the concentration were a significant mean optical density (OD) can be observed (above 3*O.D of negative control). As a positive control, the NOD1 pathway was stimulated with commercially available iE-DAP (InvivoGen) and C12-iE-DAP (an acylated derivative of DAP; InvivoGen). As a negative control endotoxin-free water was used. Additionally, 293 cells expressing the SEAP gene but not the NOD1 gene were used as a control.

murine NOD1 = biological target: T2, murine NOD1 (Mus musculus, UniProt Q8BHB0); assay: NOD1 functional agonist assay, 293mNOD1-SEAP reporter cells; type: cell-based; conditions: 293mNOD1 cells, OD above 3*O.D of negative control
T2 construct: expressed in transfected cells; host or cells: HEK293
T2 sequence (Q8BHB0 1-953): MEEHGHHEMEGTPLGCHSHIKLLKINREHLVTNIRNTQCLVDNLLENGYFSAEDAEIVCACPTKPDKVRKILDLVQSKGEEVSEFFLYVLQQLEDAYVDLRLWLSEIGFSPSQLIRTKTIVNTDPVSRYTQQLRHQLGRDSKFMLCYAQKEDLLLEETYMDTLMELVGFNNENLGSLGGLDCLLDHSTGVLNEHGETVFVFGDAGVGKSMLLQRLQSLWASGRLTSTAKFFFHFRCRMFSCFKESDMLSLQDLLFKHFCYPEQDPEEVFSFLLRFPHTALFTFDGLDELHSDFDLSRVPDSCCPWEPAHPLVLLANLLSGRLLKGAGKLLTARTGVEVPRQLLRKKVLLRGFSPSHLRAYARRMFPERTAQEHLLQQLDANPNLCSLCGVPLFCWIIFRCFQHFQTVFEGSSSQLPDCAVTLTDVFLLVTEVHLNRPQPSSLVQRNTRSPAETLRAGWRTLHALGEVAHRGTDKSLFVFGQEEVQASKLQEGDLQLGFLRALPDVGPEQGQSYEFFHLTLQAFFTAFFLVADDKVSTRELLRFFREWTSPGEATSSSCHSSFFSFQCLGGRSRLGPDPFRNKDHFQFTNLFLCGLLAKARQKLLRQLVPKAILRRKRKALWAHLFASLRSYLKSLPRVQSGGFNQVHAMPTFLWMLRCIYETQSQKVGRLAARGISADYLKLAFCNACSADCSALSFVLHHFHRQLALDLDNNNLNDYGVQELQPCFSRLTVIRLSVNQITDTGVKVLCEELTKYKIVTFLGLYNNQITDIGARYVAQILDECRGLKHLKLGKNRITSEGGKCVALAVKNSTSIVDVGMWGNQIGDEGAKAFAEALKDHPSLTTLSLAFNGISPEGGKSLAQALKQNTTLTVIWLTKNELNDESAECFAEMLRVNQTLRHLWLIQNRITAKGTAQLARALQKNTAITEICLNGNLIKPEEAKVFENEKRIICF
Excerpt: as §1, §2

| hNod1: concentration where a significant mean optical density (OD) can be observed (human NOD1) [µg/mL] | mNod1: concentration where a significant mean optical density (OD) can be observed (murine NOD1) [µg/mL] | SMILES |
| --- | --- | --- |
| 0.001 | 0.1 | CCCCCCCCCCCCCC(=O)N[C@H](C(=O)N[C@H](CCC(=O)N[C@H](CSC[C@H](N)C(=O)O)C(=O)O)C(=O)O)C(C)C [Example 12, N^5-((S)-2-(((R)-2-amino-2-carboxyethyl)thio)-1-carboxyethyl)-N^2-(tetradecanoyl-L-valyl)-D-glutamine] |
| 0.001 | 1 | CCCCCCCCCCCCCC(=O)N[C@@H](Cc1ccccc1)C(=O)N[C@H](CCC(=O)N[C@H](CSC[C@H](N)C(=O)O)C(=O)O)C(=O)O [Example 13, N^5-((S)-2-(((R)-2-amino-2-carboxyethyl)thio)-1-carboxyethyl)-N^2-(tetradecanoyl-L-phenylalanyl)-D-glutamine] |
| 1 | 10 | C[C@@H](NC(=O)[C@@H](CSC[C@H](N)C(=O)O)NC(=O)CC[C@@H](N)C(=O)O)C(=O)O [Example 14, N^5-((S)-3-(((R)-2-amino-2-carboxyethyl)thio)-1-(((R)-1-carboxyethyl)amino)-1-oxopropan-2-yl)-D-glutamine] |
| 0.01 | 0.001 | CCCCCCCCCCCC(=O)N[C@H](CCC(=O)N[C@H](CSC[C@H](N)C(=O)O)C(=O)N[C@H](C)C(=O)O)C(=O)O [Example 16, N^5-((S)-3-(((R)-2-amino-2-carboxyethyl)thio)-1-(((R)-1-carboxyethyl)amino)-1-oxopropan-2-yl)-N^2-dodecanoyl-D-glutamine] |
| 0.01 | 0.001 | CCCCCCCCCCCCCC(=O)N[C@H](CCC(=O)N[C@H](CSC[C@H](N)C(=O)O)C(=O)N[C@H](C)C(=O)O)C(=O)O [Example 17, N^5-((S)-3-(((R)-2-amino-2-carboxyethyl)thio)-1-(((R)-1-carboxyethyl)amino)-1-oxopropan-2-yl)-N^2-tetradecanoyl-D-glutamine] |
| 1 | 1 | C[C@H](N)C(=O)N[C@H](CCC(=O)N[C@H](CSC[C@H](N)C(=O)O)C(=O)N[C@H](C)C(=O)O)C(=O)O [Example 18, N^2-(L-alanyl)-N^5-((S)-3-(((R)-2-amino-2-carboxyethyl)thio)-1-(((R)-1-carboxyethyl)amino)-1-oxopropan-2-yl)-D-glutamine] |
| 0.1 | 0.1 | CCCCCCC(=O)N[C@@H](C)C(=O)N[C@H](CCC(=O)N[C@H](CSC[C@H](N)C(=O)O)C(=O)N[C@H](C)C(=O)O)C(=O)O [Example 19, N^5-((S)-3-(((R)-2-amino-2-carboxyethyl)thio)-1-(((R)-1-carboxyethyl)amino)-1-oxopropan-2-yl)-N^2-(heptanoyl-L-alanyl)-D-glutamine] |
| 0.01 | 0.01 | CCCCCCCCCCCC(=O)N[C@@H](C)C(=O)N[C@H](CCC(=O)N[C@H](CSC[C@H](N)C(=O)O)C(=O)N[C@H](C)C(=O)O)C(=O)O [Example 20, N^5-((S)-3-(((R)-2-amino-2-carboxyethyl)thio)-1-(((R)-1-carboxyethyl)amino)-1-oxopropan-2-yl)-N^2-(dodecanoyl-L-alanyl)-D-glutamine] |
| 0.01 | 0.001 | CCCCCCCCCCCCCC(=O)N[C@@H](C)C(=O)N[C@H](CCC(=O)N[C@H](CSC[C@H](N)C(=O)O)C(=O)N[C@H](C)C(=O)O)C(=O)O [Example 21, N^5-((S)-3-(((R)-2-amino-2-carboxyethyl)thio)-1-(((R)-1-carboxyethyl)amino)-1-oxopropan-2-yl)-N^2-(tetradecanoyl-L-alanyl)-D-glutamine] |
| 1 | 10 | N[C@H](CCC(=O)N[C@H](CSC[C@H](N)C(=O)O)C(=O)NCC(=O)O)C(=O)O [Example 22, N^5-((S)-3-(((R)-2-amino-2-carboxyethyl)thio)-1-((carboxymethyl)amino)-1-oxopropan-2-yl)-D-glutamine] |
| 1 | 1 | CCCCCCC(=O)N[C@H](CCC(=O)N[C@H](CSC[C@H](N)C(=O)O)C(=O)NCC(=O)O)C(=O)O [Example 23, N^5-((S)-3-(((R)-2-amino-2-carboxyethyl)thio)-1-((carboxymethyl)amino)-1-oxopropan-2-yl)-N^2-heptanoyl-D-glutamine] |
| 0.01 | 0.01 | CCCCCCCCCCCC(=O)N[C@H](CCC(=O)N[C@H](CSC[C@H](N)C(=O)O)C(=O)NCC(=O)O)C(=O)O [Example 24, N^5-((S)-3-(((R)-2-amino-2-carboxyethyl)thio)-1-((carboxymethyl)amino)-1-oxopropan-2-yl)-N^2-dodecanoyl-D-glutamine] |
| 0.01 | 0.01 | CCCCCCCCCCCCCC(=O)N[C@H](CCC(=O)N[C@H](CSC[C@H](N)C(=O)O)C(=O)NCC(=O)O)C(=O)O [Example 25, N^5-((S)-3-(((R)-2-amino-2-carboxyethyl)thio)-1-((carboxymethyl)amino)-1-oxopropan-2-yl)-N^2-tetradecanoyl-D-glutamine] |
